Source: patent US6620428B1, “Transdermally administered acetylcysteine as mucolytic agent” (Pharmacia AB, priority 1996, dated 2003)
Like-named read-outs stand apart in the source and are kept apart here.

Key:
[1] = format: in vitro ADME; details: pig
Description: Quantitative determination of N-Acetyl-L-cysteine in the receptor solution samples from the skin permeation studies in Example 2 and from the membrane permeation studies in Example 3, and quantitative determination of N-Acetyl-L-cysteine in the samples from the stability studies in Example 6, was done by the HPLC method described under Apparatus.
In vitro permeation of N-Acetyl-L-cysteine from the solutions 1, 2, 3 and 4 through dermatomed pig skin was investigated in Franz diffusion Cells.
Skin pieces with a thickness of approximately 765 μm were dermatomed from full thickness pig skin and mounted in glass diffusion cells with an available diffusion area of 1.8 cm^2. Pig skin is a fully accepted model for human skin. The solutions 1, 2, 3 and 4 were applied separately on the skin surfaces and the dermal sides were all exposed to 12.1 ml receptor solution consisting of 0.0001M hydrochloric acid equilibrated to 37±1° C.
Permeation of N-Acetyl-L-cysteine was followed by removing samples periodically and measuring the concentration by the HPLC method according to Example 1. An increase in the permeated amount of N-Acetyl-L-cysteine is seen in the following order: Propylene glycol, water, ethanol and propylene glycol containing 5% azone added used as solvents. […]

[2] = oral administration, cited from earlier work

CC(=O)N[C@@H](CS)C(=O)O [N-Acetyl-L-cysteine]
estimated fluxes of N-Acetyl-L-cysteine through skin [1]: 4-48 μg/cm^2/h | amount permeated through skin after 20 hours ([1]; 20 h): about 3000 μg/cm^2 | bioavailability when administered perorally [2]: 4% | bioavailability when administered perorally ([2]; listed as N-Acetyl-cysteine): 4-10%
